# Results as given in ChEMBL document CHEMBL1201862, “PubChem BioAssay data set” (2004).
#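 Interpolation was linear, between the two tested concentrations surrounding the appropriate level; five concentrations were tested over 48 hours in 96-well plates. At the GI50, growth is halved.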 Activity calls are given as the source filed them. No stated cut-off is given here; in the data, active = GI50 up to about 1.1 µM and inactive = higher.
# Columns and labels:
# Assay in all cases: NCI-60 cell line screen, 48 h
# [1] = system: SK-MEL-28
# [2] = system: HCC 2998
# [3] = system: U-251
# [4] = system: MDA-N
# [5] = system: OVCAR-8
# [6] = system: TK-10
# [7] = system: HOP-62
# [8] = system: SK-MEL-2
# [9] = system: HCT-15
# [10] = system: SK-OV-3
# [11] = system: SK-MEL-5
# [12] = system: OVCAR-3
# [13] = system: Malme-3M
# [14] = system: BT-549
# [15] = system: EKVX
# [16] = system: RPMI-8226
# [17] = system: HCT-116
# [18] = system: SW-620
# [19] = system: HT-29
# [20] = system: M14
# [21] = system: ACHN
# [22] = system: T47D
# [23] = system: MOLT-4
# [24] = system: HL-60
# [25] = system: PC-3
# [26] = system: KM12
# [27] = system: SF-539
# [28] = system: MDA-MB-231
# [29] = system: NCI/ADR-RES
# [30] = system: SF-268
# [31] = system: OVCAR-4
# [32] = system: NCI-H460
# [33] = system: NCI-H23
# [34] = system: SN12C
# [35] = system: UACC-62
# [36] = system: SF-295
# [37] = system: MCF7
# [38] = system: NCI-H226
# [39] = system: IGROV-1
# [40] = system: UACC-257
# [41] = system: K562
# [42] = system: LOX IMVI
# [43] = system: DU-145
# [44] = system: RXF 393
# [45] = system: A498
# [46] = system: CCRF-CEM
# [47] = system: SNB-75
# [48] = system: OVCAR-5
# [49] = system: UO-31
# [50] = system: 786-0
# [51] = system: SNB-19
# [52] = system: COLO 205
# [53] = system: Hs-578T
# [54] = system: CAKI-1
# [55] = system: SR
# [56] = system: MDA-MB-435
# [57] = system: NCI-H522
# [58] = system: A549
compound,measurement,setting,value
O=C1Nc2ccc(Br)cc2/C1=N/Nc1ccccc1[N+](=O)[O-],GI50,[1],19.7 µM (inactive)
same,GI50,[2],13 µM (inactive)
same,GI50,[3],35.4 µM (inactive)
same,GI50,[4],17 µM (inactive)
same,GI50,[5],17.2 µM (inactive)
same,GI50,[6],10.3 µM (inactive)
same,GI50,[7],11.4 µM (inactive)
same,GI50,[8],25.2 µM (inactive)
same,GI50,[9],20.5 µM
same,GI50,[10],24 µM (inactive)
same,GI50,[11],8.63 µM (inactive)
same,GI50,[12],10.7 µM (inactive)
same,GI50,[13],13.6 µM (inactive)
same,GI50,[14],30.7 µM (inactive)
same,GI50,[15],6.31 µM (inactive)
same,GI50,[16],16.4 µM (inactive)
same,GI50,[17],32.4 µM (inactive)
same,GI50,[18],25 µM (inactive)
same,GI50,[19],13.8 µM (inactive)
same,GI50,[20],13.9 µM (inactive)
same,GI50,[21],3.83 µM (inactive)
same,GI50,[22],29.9 µM (inactive)
same,GI50,[23],42.9 µM (inactive)
same,GI50,[24],33.2 µM (inactive)
same,GI50,[25],15.8 µM (inactive)
same,GI50,[26],8.2 µM (inactive)
same,GI50,[27],> 100 µM (inactive)
same,GI50,[28],1.92 µM (inactive)
same,GI50,[29],15.8 µM (inactive)
same,GI50,[30],20.2 µM (inactive)
same,GI50,[31],14.4 µM (inactive)
same,GI50,[32],9.73 µM (inactive)
same,GI50,[33],3.56 µM (inactive)
same,GI50,[34],18.8 µM (inactive)
same,GI50,[35],22.2 µM (inactive)
same,GI50,[36],14 µM (inactive)
same,GI50,[37],20.8 µM (inactive)
same,GI50,[38],13.6 µM (inactive)
same,GI50,[39],0.261 µM (active)
same,GI50,[40],13.3 µM (inactive)
same,GI50,[41],16.6 µM (inactive)
same,GI50,[42],15.2 µM (inactive)
same,GI50,[43],12.2 µM (inactive)
same,GI50,[44],32.7 µM (inactive)
same,GI50,[45],28 µM (inactive)
same,GI50,[46],12.5 µM (inactive)
same,GI50,[47],15.8 µM (inactive)
same,GI50,[48],12.7 µM (inactive)
same,GI50,[49],16.9 µM (inactive)
same,GI50,[50],24.6 µM (inactive)
same,GI50,[51],28.6 µM (inactive)
same,GI50,[52],12.1 µM (inactive)
same,GI50,[53],16.1 µM (inactive)
same,GI50,[54],14.2 µM (inactive)
same,GI50,[55],10.2 µM (inactive)
same,GI50,[56],21.1 µM (inactive)
same,GI50,[57],15.5 µM (inactive)
same,GI50,[58],9.29 µM (inactive)
